{"source": "patent US20160115540A1", "about": "“PRODRUGS AND DRUGS” (Biogen MA Inc., priority 2013, published 2016)", "test_system": "jejunum", "test": "Transcriptional profiling on Affymetrix GeneChips, single dose, naïve mice: jejunum", "type": "in vivo, C57BL/6 mice", "details": "for Number of differentially expressed genes identified: Jenjunum: Naïve, Single Dose", "experimental": "Treated mice were sacrificed at 2, 7, or 12 hours. Tissues (liver, spleen, kidney, jejunum, cortex, hippocampus, striatum and whole blood) were collected and analyzed by transcriptional profiling on mouse Affymetrix GeneChips.\nTissues (liver, spleen, kidney, jejunum, cortex, hippocampus, striatum and whole blood) were collected and analyzed by transcriptional profiling on mouse Affymetrix GeneChips.\nAnimals were exposed to CO2 and whole blood collected via cardiac puncture. Two 100 μl aliquots of whole blood were collected in 1.5 mL microcentrifuge tubes and snap frozen in liquid nitrogen. Peripheral (liver, spleen, kidney and jejunum) and CNS brain (cerebellum, hippocampus, striatum and cortex) tissues were harvested and snap frozen in liquid nitrogen, with special care taken to collect tissues of similar size and from the same location. All samples were stored at −80° C. until RNA extraction was conducted.\nFor RNA preparation, frozen tissues were placed in 2 mL RNAse-free 96-well blocks with 1.5 mL QIAzol Lysis Reagent (QIAgen) and a 3.2 mm stainless steel bead (BioSpec Products, Bartlesville, Okla.). Tissues were disrupted for four cycles of 45 seconds in a Mini-Beadbeater (Biospec Products). RNA was extracted in chloroform and the aqueous phase was mixed with an equal volume of 70% ethanol. Extracted RNA was applied to RNeasy 96 plates and purified by the spin method according to the manufacturer's protocol (RNeasy 96 Universal Tissue Protocol, QIAgen, Hilden Germany).\nAutomated sample amplifications and biotin labelings were carried out using the NuGEN Ovation RNA Amplification system V2 (Cat #3100), Ovation WB reagent (Cat #1300) and Encore Biotin module (Cat #4200) (NuGEN Technologies, Inc, San Carlos, Calif.) according to manufacturer's recommendations using an Arrayplex automated liquid handler (Beckman Coulter, Indianapolis, Ind.). Two micrograms of biotin labeled sscDNA probe were hybridized to Affymetrix GeneChip Affymetrix HT_MG-430_PM plate arrays with modified conditions as described in Allaire et al. Washing and staining of the hybridized arrays were completed as described in the GeneChip Expression analysis technical manual for HT plate arrays using the Genechip® Array Station (Affymetrix, Santa Clara, Calif.) with modifications as described in Allaire et al. The processed GeneChip® plate arrays were scanned using GeneTitan scanner (Affymetrix, Santa Clara, Calif.).\nAffymetrix scans were subject to quality control (QC) measures. These tests included a visual inspection of the distribution of raw signal intensities and an assessment of RNA degradation, relative log expression (RLE), and normalized unsealed standard error (NUSE). All sample scans that passed these QC metrics were included in the analysis.\nAll CEL files were subjected to GC-content-based Robust Multi-array Average (GCRMA) normalization (version 2.20.0) (Irizarry R A, et al. Nucleic Acids Res 2003; 31:e15; Li C, et al. Genome Biol 2001; 2:[…]0032). Expression levels were log (base 2) transformed.\nAll calculations and analyses were carried out using R (version 2.11.1) and Bioconductor computational tools (Gentleman R. Springer Science+Business Media 2005).", "note": "Counter-ions that a name gives are not always drawn."}
{"smiles": "COC(=O)/C=C/C(=O)OC", "note": "[DMF, dimethyl fumarate]", "values": [{"measurement": "Pir (1429001_PM_at) differential expression", "setting": "Jejunum, 12 hr", "result": 3.79}, {"measurement": "Setd4 (1435405_PM_at) differential expression", "setting": "Jejunum, 12 hr", "result": 1.66}, {"measurement": "Slc5a4b (1422757_PM_at) differential expression", "setting": "Jejunum, 12 hr", "result": 2.21}, {"measurement": "Ugt2b5 (1419622_PM_at) differential expression", "setting": "Jejunum, 12 hr", "result": 4.92}, {"measurement": "Ugt2b36 (1455595_PM_at) differential expression", "setting": "Jejunum, 12 hr", "result": 2.94}, {"measurement": "Number of differentially expressed genes identified: Jenjunum", "setting": "100 mpk DMF-vs-100 mpk MMF, 2 h after last dosing", "result": 1}, {"measurement": "Number of differentially expressed genes identified: Jenjunum", "setting": "100 mpk DMF-vs-100 mpk MMF, 7 h after last dosing", "result": 2}, {"measurement": "Number of differentially expressed genes identified: Jenjunum", "setting": "100 mpk DMF-vs-100 mpk MMF, 12 h after last dosing", "result": 0}, {"measurement": "Number of differentially expressed genes identified: Jenjunum", "setting": "100 mpk, vs Vehicle, 2 h after last dosing", "result": 62}, {"measurement": "Number of differentially expressed genes identified: Jenjunum", "setting": "100 mpk, vs Vehicle, 7 h after last dosing", "result": 44}, {"measurement": "Number of differentially expressed genes identified: Jenjunum", "setting": "100 mpk, vs Vehicle, 12 h after last dosing", "result": 37}, {"measurement": "FC 9130221J17Rik (1443159_PM_at)", "setting": "jejunum, 100DMF-vs-Veh, 2 h", "result": 2.30}, {"measurement": "FC Acss2 (1446542_PM_at)", "setting": "jejunum, 100DMF-vs-Veh, 2 h", "result": 1.68}, {"measurement": "FC Akr1b8 (1448894_PM_at)", "setting": "jejunum, 100DMF-vs-Veh, 2 h", "result": 7.35}, {"measurement": "FC Akr1c13 (1418672_PM_at)", "setting": "jejunum, 100DMF-vs-Veh, 2 h", "result": 1.62}, {"measurement": "FC Akr1c19 (1455454_PM_at)", "setting": "jejunum, 100DMF-vs-Veh, 2 h", "result": 2.45}, {"measurement": "FC Areg (1421134_PM_at)", "setting": "jejunum, 100DMF-vs-Veh, 2 h", "result": 3.58}, {"measurement": "FC Cbr1 (1460196_PM_at)", "setting": "jejunum, 100DMF-vs-Veh, 2 h", "result": 1.55}, {"measurement": "FC Cbr3 (1427912_PM_at)", "setting": "jejunum, 100DMF-vs-Veh, 2 h", "result": 54.72}, {"measurement": "FC Ces1e (1419510_PM_at)", "setting": "jejunum, 100DMF-vs-Veh, 2 h", "result": 1.85}, {"measurement": "FC Ces1f (1424266_PM_s_at)", "setting": "jejunum, 100DMF-vs-Veh, 2 h", "result": 2.48}, {"measurement": "FC Ces1g (1449486_PM_at)", "setting": "jejunum, 100DMF-vs-Veh, 2 h", "result": 4.06}, {"measurement": "FC Dnase2a (1430135_PM_at)", "setting": "jejunum, 100DMF-vs-Veh, 2 h", "result": 1.77}, {"measurement": "FC Dppa5a (1416552_PM_at)", "setting": "jejunum, 100DMF-vs-Veh, 2 h", "result": 3.07}, {"measurement": "FC Dusp4 1428834_PM_at", "setting": "jejunum, 100DMF-vs-Veh, 2 h", "result": 1.51}, {"measurement": "FC Entpd5 (1433763_PM_at)", "setting": "jejunum, 100DMF-vs-Veh, 2 h", "result": 1.53}, {"measurement": "FC Ereg (1419431_PM_at)", "setting": "jejunum, 100DMF-vs-Veh, 2 h", "result": 2.50}, {"measurement": "FC Ero1l (1419030_PM_at)", "setting": "jejunum, 100DMF-vs-Veh, 2 h", "result": 1.92}, {"measurement": "FC Ero1l (1449324_PM_at)", "setting": "jejunum, 100DMF-vs-Veh, 2 h", "result": 1.50}, {"measurement": "FC Esd (1441604_PM_at)", "setting": "jejunum, 100DMF-vs-Veh, 2 h", "result": 1.71}, {"measurement": "FC Fam13a (1456611_PM_at)", "setting": "jejunum, 100DMF-vs-Veh, 2 h", "result": 1.54}, {"measurement": "FC Gclc (1424296_PM_at)", "setting": "jejunum, 100DMF-vs-Veh, 2 h", "result": 4.25}, {"measurement": "FC Gclc (1455959_PM_s_at)", "setting": "jejunum, 100DMF-vs-Veh, 2 h", "result": 3.13}, {"measurement": "FC Gsr (1421816_PM_at)", "setting": "jejunum, 100DMF-vs-Veh, 2 h", "result": 2.23}, {"measurement": "FC Gss (1441931_PM_x_at)", "setting": "jejunum, 100DMF-vs-Veh, 2 h", "result": 1.95}, {"measurement": "FC Gss (1448273_PM_at)", "setting": "jejunum, 100DMF-vs-Veh, 2 h", "result": 1.67}, {"measurement": "FC Gsta2 (1421040_PM_a_at)", "setting": "jejunum, 100DMF-vs-Veh, 2 h", "result": 3.82}, {"measurement": "FC Gsta3 (1423436_PM_at)", "setting": "jejunum, 100DMF-vs-Veh, 2 h", "result": 3.23}, {"measurement": "FC Gsta3 (1423437_PM_at)", "setting": "jejunum, 100DMF-vs-Veh, 2 h", "result": 4.03}, {"measurement": "FC Gstm1 (1416416_PM_x_at)", "setting": "jejunum, 100DMF-vs-Veh, 2 h", "result": 2.30}, {"measurement": "FC Gstm1 (1425627_PM_x_at)", "setting": "jejunum, 100DMF-vs-Veh, 2 h", "result": 2.57}, {"measurement": "FC Gstm1 (1448330_PM_at)", "setting": "jejunum, 100DMF-vs-Veh, 2 h", "result": 2.47}, {"measurement": "FC Gstm3 (1427473_PM_at)", "setting": "jejunum, 100DMF-vs-Veh, 2 h", "result": 2.37}, {"measurement": "FC Gstm3 (1427474_PM_s_at)", "setting": "jejunum, 100DMF-vs-Veh, 2 h", "result": 1.56}, {"measurement": "FC LOC100504040 (1457279_PM_at)", "setting": "jejunum, 100DMF-vs-Veh, 2 h", "result": 2.18}, {"measurement": "FC Mafg (1448916_PM_at)", "setting": "jejunum, 100DMF-vs-Veh, 2 h", "result": 2.20}, {"measurement": "FC Nqo1 (1423627_PM_at)", "setting": "jejunum, 100DMF-vs-Veh, 2 h", "result": 2.16}, {"measurement": "FC Osgin1 (1424022_PM_at)", "setting": "jejunum, 100DMF-vs-Veh, 2 h", "result": 2.08}, {"measurement": "FC Prss8 (1418320_PM_at)", "setting": "jejunum, 100DMF-vs-Veh, 2 h", "result": 2.60}, {"measurement": "FC Ptk6 (1442923_PM_at)", "setting": "jejunum, 100DMF-vs-Veh, 2 h", "result": "−2.42"}, {"measurement": "FC Setd4 (1425239_PM_at)", "setting": "jejunum, 100DMF-vs-Veh, 2 h", "result": 2.09}, {"measurement": "FC Setd4 (1435405_PM_at)", "setting": "jejunum, 100DMF-vs-Veh, 2 h", "result": 1.91}, {"measurement": "FC Setd4 (1460373_PM_a_at)", "setting": "jejunum, 100DMF-vs-Veh, 2 h", "result": 1.91}, {"measurement": "FC Slc35e3 (1428805_PM_at)", "setting": "jejunum, 100DMF-vs-Veh, 2 h", "result": 1.53}, {"measurement": "FC Slc40a1 (1417061_PM_at)", "setting": "jejunum, 100DMF-vs-Veh, 2 h", "result": 2.33}, {"measurement": "FC Srr (1453421_PM_at)", "setting": "jejunum, 100DMF-vs-Veh, 2 h", "result": 1.99}, {"measurement": "FC Srxn1 (1425351_PM_at)", "setting": "jejunum, 100DMF-vs-Veh, 2 h", "result": 1.71}, {"measurement": "FC Tifa (1426501_PM_a_at)", "setting": "jejunum, 100DMF-vs-Veh, 2 h", "result": "−2.43"}]}
